Test results: ChEMBL document CHEMBL1151594, “Aromatic guanyl hydrazones: Synthesis, structural studies and in vitro activity against Trypanosoma cruzi” (1995)
Blank lines part the entries; values can stand above or below the molecule they belong to.

Experiments:
Type in all cases: functional
[1] = species on record: Mus musculus; test: Effect on lysis of erythrocytes after 24 hr at 4 degree centigrade; Value given as 150-200
[2] = test system: Trypanosoma cruzi; test: In vitro inhibitory activity against trypomastigote form of Trypanosoma Cruzi.; conditions: read-out: ID50 (the source's name)
[3] = species on record: Mus musculus; test: Effect on lysis of erythrocytes after 24 hr at 4 degree centigrade; Value given as 500-600
[4] = species on record: Mus musculus; test: Effect on lysis of erythrocytes after 24 hr at 4 degree centigrade; Value given as 40-50
[5] = species on record: Mus musculus; test: Effect on lysis of erythrocytes after 24 hr at 4 degree centigrade; Value given as 300-400
[6] = species on record: Mus musculus; test: Effect on lysis of erythrocytes after 24 hr at 4 degree centigrade; Value given as 100-150
[7] = species on record: Mus musculus; test: Effect on lysis of erythrocytes after 24 hr at 4 degree centigrade; Value given as 75-100
[8] = species on record: Mus musculus; test: Effect on lysis of erythrocytes after 24 hr at 4 degree centigrade; Value given as 500-700
[9] = species on record: Mus musculus; test: Effect on lysis of erythrocytes after 24 hr at 4 degree centigrade; Value given as 400-500
[10] = species on record: Mus musculus; test: Effect on lysis of erythrocytes after 24 hr at 4 degree centigrade; Value given as 250-300
[11] = species on record: Mus musculus; test: Effect on lysis of erythrocytes after 24 hr at 4 degree Centigrade
[12] = species on record: Mus musculus; test: Effect on lysis of erythrocytes after 24 hr at 4 degree centigrade; Value given as 1200-1400
[13] = species on record: Mus musculus; test: Effect on lysis of erythrocytes after 24 hr at 4 degree centigrade; Value given as 50-75
[14] = species on record: Mus musculus; test: Effect on lysis of erythrocytes after 24 hr at 4 degree centigrade; Value given as 700-1000

IC50 [2]: 55.9 µM
Compound: Cl.N=C(N)N/N=C/c1ccc([N+](=O)[O-])cc1
Total lysis [1]: 150 µM

IC50 [2]: 17.1 µM
Compound: Cl.N=C(N)N/N=C/c1cc2c(cc1[N+](=O)[O-])OCO2
Total lysis [4]: 40 µM

IC50 [2]: 33.8 µM
Compound: COc1ccc(/C=N/NC(=N)N)c(OC)c1.Cl
Total lysis [6]: 100 µM

IC50 [2]: 87.5 µM
Compound: Cl.N=C(N)N/N=C/c1ccccc1[N+](=O)[O-]
Total lysis [1]: 150 µM

IC50 [2]: 261 µM
Compound: Cl.N=C(N)N/N=C/c1ccccc1N
Total lysis [3]: 500 µM

IC50 [2]: 97.8 µM
Compound: CCOc1cccc(/C=N/NC(=N)N)c1O.Cl
Total lysis [1]: 150 µM

IC50 [2]: 876 µM
Compound: Cl.N=C(N)N/N=C/c1cccc([N+](=O)[O-])c1O
Total lysis [11]: >1400 µM

Second part, the molecule before the results:

Compound: COc1ccc(OC)c(/C=N/NC(=N)N)c1.Cl
Total lysis [1]: 150 µM
IC50 [2]: 41.4 µM

Compound: COc1ccccc1/C=N/NC(=N)N.Cl
Total lysis [1]: 150 µM
IC50 [2]: 86.3 µM

Compound: CN(C)c1ccc(/C=N/NC(=N)N)cc1.Cl
IC50 [2]: 202 µM
Total lysis [3]: 500 µM

Compound: Cl.N=C(N)N/N=C/c1ccccc1O
IC50 [2]: 166 µM
Total lysis [5]: 300 µM

Compound: CCOc1ccccc1/C=N/NC(=N)N.Cl
IC50 [2]: 34.7 µM
Total lysis [7]: 75 µM

Compound: Cl.N=C(N)N/N=C/c1cccc([N+](=O)[O-])c1
IC50 [2]: 183 µM
Total lysis [8]: 500 µM

Compound: Cl.N=C(N)N/N=C/c1ccccc1
Total lysis [9]: 400 µM

Compound: Cc1ccc(/C=N/NC(=N)N)cc1.Cl
IC50 [2]: 103 µM
Total lysis [10]: 250 µM

Compound: Cl.N=C(N)N/N=C/c1cc2c(cc1N)OCO2
IC50 [2]: 221 µM
Total lysis [3]: 500 µM

Compound: Cl.N=C(N)N/N=C/c1ccc(C(=O)O)cc1
IC50 [2]: 573 µM
Total lysis [12]: 1200 µM

Compound: Cl.N=C(N)N/N=C/c1cc2c(cc1Br)OCO2
Total lysis [13]: 50 µM

Compound: Cl.N=C(N)N/N=C/c1ccc2c(c1)OCO2
Total lysis [14]: 700 µM

Compound: COc1cc(/C=N/NC(=N)N)ccc1O
IC50 [2]: > 4800 µM

Compound: COc1cccc(/C=N/NC(=N)N)c1OC.Cl
Total lysis [7]: 75 µM

Compound: Cl.N=C(N)N/N=C/c1ccc(Cl)cc1
Total lysis [6]: 100 µM

Compound: CN(C)c1ccc(C(=C2C=CC(=[N+](C)C)C=C2)c2ccc(N(C)C)cc2)cc1 [GENTIAN VIOLET]
IC50 [2]: 536 µM
